From US9714244B2, “Substituted pyrido[4,3-d]pyrimidines as Wee-1 inhibitors” (ALMAC DISCOVERY LIMITED, priority 2013, dated 2017)

Tests used:
RET = RET (Homo sapiens (Human), UniProt P07949); test: SelectScreen Kinase Profiling: RET; type: biochemical; conditions: 300-350 nM
Source text: (§1) Table 2 below highlights the selectivity of a representative compound of the invention against a panel of 50 kinases (assessed using the Invitrogen SelectScreen® Kinase Profiling Service).

PLK1 = PLK1 (Homo sapiens (Human), UniProt P53350); test: SelectScreen Kinase Profiling: PLK1; type: biochemical; conditions: 300-350 nM
Source text: as §1

PRKCB1 (PKC beta I) = PRKCB1 (PKC beta I) (Homo sapiens (Human), UniProt P05771); test: SelectScreen Kinase Profiling: PRKCB1; type: biochemical; conditions: 300-350 nM
PRKCB1 (PKC beta I), sequence (P05771 whole entry): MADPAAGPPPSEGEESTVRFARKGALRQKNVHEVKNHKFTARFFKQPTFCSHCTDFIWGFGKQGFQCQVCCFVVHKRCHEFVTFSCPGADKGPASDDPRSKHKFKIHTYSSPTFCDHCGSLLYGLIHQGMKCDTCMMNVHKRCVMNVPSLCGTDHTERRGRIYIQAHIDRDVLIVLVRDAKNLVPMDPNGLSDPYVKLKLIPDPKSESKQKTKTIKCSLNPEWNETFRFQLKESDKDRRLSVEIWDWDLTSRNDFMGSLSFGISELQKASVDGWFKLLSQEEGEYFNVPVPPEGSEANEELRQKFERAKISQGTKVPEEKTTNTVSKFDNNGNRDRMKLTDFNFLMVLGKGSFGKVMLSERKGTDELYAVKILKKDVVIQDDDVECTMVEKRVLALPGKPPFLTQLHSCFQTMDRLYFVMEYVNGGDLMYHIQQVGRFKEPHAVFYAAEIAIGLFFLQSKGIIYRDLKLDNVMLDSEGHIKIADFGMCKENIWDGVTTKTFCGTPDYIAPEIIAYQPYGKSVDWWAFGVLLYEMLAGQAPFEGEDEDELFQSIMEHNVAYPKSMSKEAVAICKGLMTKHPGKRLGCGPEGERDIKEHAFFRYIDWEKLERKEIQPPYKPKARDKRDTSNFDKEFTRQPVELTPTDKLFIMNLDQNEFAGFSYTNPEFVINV
Source text: as §1

IGF1R = IGF1R (Homo sapiens (Human), UniProt P08069); test: SelectScreen Kinase Profiling: IGF1R; type: biochemical; conditions: 300-350 nM
Source text: as §1

CHEK1 (CHK1) = CHEK1 (CHK1) (Homo sapiens (Human), UniProt O14757); test: SelectScreen Kinase Profiling: CHEK1; type: biochemical; conditions: 300-350 nM
Source text: as §1

AURKA (Aurora A) = AURKA (Aurora A) (Homo sapiens (Human), UniProt O14965); test: SelectScreen Kinase Profiling: AURKA; type: biochemical; conditions: 300-350 nM
AURKA (Aurora A), sequence (O14965 whole entry): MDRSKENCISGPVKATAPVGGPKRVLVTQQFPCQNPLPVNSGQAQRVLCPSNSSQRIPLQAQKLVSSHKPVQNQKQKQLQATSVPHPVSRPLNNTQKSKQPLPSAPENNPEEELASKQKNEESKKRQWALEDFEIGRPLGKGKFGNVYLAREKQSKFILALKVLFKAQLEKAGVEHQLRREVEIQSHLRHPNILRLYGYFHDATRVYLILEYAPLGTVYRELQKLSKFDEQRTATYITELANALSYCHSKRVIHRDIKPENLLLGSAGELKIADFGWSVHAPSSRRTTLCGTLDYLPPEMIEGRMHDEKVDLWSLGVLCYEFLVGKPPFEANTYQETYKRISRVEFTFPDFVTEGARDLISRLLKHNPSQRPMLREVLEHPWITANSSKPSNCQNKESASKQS
Source text: as §1

Src [1] = biological target: Src (Homo sapiens (Human), UniProt P12931); test: SelectScreen Kinase Profiling: SRC; type: biochemical; conditions: 300-350 nM
MAPK8 (JNK1) = MAPK8 (JNK1) (Homo sapiens (Human), UniProt P45983); test: SelectScreen Kinase Profiling: MAPK8; type: biochemical; conditions: 300-350 nM
Source text: as §1

NTRK1 (TRKA) = NTRK1 (TRKA) (Homo sapiens (Human), UniProt P04629); test: SelectScreen Kinase Profiling: NTRK1; type: biochemical; conditions: 300-350 nM
Source text: as §1

ACVR1B (ALK4) = ACVR1B (ALK4) (Homo sapiens (Human), UniProt P36896); test: SelectScreen Kinase Profiling: ACVR1B; type: biochemical; conditions: 300-350 nM
Source text: as §1

KIT = KIT (Homo sapiens (Human), UniProt P10721); test: SelectScreen Kinase Profiling: KIT; type: biochemical; conditions: 300-350 nM
Source text: as §1

MAPKAPK2 = MAPKAPK2 (Homo sapiens (Human), UniProt P49137); test: SelectScreen Kinase Profiling: MAPKAPK2; type: biochemical; conditions: 300-350 nM
Source text: as §1

RPS6KB1 (p70S6K) = RPS6KB1 (p70S6K) (Homo sapiens (Human), UniProt P23443); test: SelectScreen Kinase Profiling: RPS6KB1; type: biochemical; conditions: 300-350 nM
Source text: as §1

FGFR1 = FGFR1 (Homo sapiens (Human), UniProt P11362); test: SelectScreen Kinase Profiling: FGFR1; type: biochemical; conditions: 300-350 nM
Source text: as §1

PHKG2 = PHKG2 (Homo sapiens (Human), UniProt P15735); test: SelectScreen Kinase Profiling: PHKG2; type: biochemical; conditions: 300-350 nM
PHKG2, sequence (P15735 whole entry): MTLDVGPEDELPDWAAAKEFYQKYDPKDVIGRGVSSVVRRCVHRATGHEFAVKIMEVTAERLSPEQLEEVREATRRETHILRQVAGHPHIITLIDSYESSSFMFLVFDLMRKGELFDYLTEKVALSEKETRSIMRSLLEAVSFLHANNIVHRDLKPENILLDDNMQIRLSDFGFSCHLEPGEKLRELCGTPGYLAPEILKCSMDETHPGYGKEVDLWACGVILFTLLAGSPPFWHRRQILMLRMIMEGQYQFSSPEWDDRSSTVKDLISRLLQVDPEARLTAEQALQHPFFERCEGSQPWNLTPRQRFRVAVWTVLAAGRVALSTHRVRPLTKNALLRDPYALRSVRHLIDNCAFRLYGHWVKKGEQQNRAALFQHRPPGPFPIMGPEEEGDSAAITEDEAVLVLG
Source text: as §1

JAK3 = JAK3 (Homo sapiens (Human), UniProt P52333); test: SelectScreen Kinase Profiling: JAK3; type: biochemical; conditions: 300-350 nM
JAK3, sequence (P52333 whole entry): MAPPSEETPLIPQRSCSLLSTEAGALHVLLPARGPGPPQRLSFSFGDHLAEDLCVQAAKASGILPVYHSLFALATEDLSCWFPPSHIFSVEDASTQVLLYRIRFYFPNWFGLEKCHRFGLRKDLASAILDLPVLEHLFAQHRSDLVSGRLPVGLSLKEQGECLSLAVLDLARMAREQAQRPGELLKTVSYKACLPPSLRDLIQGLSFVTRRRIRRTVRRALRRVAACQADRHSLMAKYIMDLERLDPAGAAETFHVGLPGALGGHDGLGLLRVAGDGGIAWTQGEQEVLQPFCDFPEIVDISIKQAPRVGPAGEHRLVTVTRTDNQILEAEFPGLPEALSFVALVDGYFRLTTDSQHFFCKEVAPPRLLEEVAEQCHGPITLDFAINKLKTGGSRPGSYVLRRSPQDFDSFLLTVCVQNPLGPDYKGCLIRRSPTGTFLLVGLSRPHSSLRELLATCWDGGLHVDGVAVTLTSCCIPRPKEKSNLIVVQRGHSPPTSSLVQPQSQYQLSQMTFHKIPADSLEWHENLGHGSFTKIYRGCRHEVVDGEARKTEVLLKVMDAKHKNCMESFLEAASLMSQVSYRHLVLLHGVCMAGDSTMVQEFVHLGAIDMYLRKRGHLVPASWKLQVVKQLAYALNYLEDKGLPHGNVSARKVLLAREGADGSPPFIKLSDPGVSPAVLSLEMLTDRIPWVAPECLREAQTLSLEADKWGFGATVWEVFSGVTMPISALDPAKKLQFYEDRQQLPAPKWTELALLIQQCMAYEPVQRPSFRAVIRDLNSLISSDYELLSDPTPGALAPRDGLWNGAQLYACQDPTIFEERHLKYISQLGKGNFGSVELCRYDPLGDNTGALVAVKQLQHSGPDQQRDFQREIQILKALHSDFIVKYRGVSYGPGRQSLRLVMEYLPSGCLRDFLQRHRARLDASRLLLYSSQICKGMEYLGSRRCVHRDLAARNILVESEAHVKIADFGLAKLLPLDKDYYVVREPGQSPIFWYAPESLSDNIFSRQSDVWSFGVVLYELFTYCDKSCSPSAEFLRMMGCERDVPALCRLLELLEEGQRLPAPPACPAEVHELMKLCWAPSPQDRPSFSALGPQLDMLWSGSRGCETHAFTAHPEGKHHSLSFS
Source text: as §1

PRKACA (PKA) = PRKACA (PKA) (Homo sapiens (Human), UniProt P17612); test: SelectScreen Kinase Profiling: PRKACA; type: biochemical; conditions: 300-350 nM
Source text: as §1

CSNK1G2 (CK1 gamma 2) = CSNK1G2 (CK1 gamma 2) (Homo sapiens (Human), UniProt P78368); test: SelectScreen Kinase Profiling: CSNK1G2; type: biochemical; conditions: 300-350 nM
Source text: as §1

PIM1 = PIM1 (Homo sapiens (Human), UniProt P11309); test: SelectScreen Kinase Profiling: PIM1; type: biochemical; conditions: 300-350 nM
Source text: as §1

KDR (VEGFR2) = KDR (VEGFR2) (Homo sapiens (Human), UniProt P35968); test: SelectScreen Kinase Profiling: KDR; type: biochemical; conditions: 300-350 nM
Source text: as §1

NEK1 = NEK1 (Homo sapiens (Human), UniProt Q96PY6); test: SelectScreen Kinase Profiling: NEK1; type: biochemical; conditions: 300-350 nM
NEK1, sequence (Q96PY6 whole entry): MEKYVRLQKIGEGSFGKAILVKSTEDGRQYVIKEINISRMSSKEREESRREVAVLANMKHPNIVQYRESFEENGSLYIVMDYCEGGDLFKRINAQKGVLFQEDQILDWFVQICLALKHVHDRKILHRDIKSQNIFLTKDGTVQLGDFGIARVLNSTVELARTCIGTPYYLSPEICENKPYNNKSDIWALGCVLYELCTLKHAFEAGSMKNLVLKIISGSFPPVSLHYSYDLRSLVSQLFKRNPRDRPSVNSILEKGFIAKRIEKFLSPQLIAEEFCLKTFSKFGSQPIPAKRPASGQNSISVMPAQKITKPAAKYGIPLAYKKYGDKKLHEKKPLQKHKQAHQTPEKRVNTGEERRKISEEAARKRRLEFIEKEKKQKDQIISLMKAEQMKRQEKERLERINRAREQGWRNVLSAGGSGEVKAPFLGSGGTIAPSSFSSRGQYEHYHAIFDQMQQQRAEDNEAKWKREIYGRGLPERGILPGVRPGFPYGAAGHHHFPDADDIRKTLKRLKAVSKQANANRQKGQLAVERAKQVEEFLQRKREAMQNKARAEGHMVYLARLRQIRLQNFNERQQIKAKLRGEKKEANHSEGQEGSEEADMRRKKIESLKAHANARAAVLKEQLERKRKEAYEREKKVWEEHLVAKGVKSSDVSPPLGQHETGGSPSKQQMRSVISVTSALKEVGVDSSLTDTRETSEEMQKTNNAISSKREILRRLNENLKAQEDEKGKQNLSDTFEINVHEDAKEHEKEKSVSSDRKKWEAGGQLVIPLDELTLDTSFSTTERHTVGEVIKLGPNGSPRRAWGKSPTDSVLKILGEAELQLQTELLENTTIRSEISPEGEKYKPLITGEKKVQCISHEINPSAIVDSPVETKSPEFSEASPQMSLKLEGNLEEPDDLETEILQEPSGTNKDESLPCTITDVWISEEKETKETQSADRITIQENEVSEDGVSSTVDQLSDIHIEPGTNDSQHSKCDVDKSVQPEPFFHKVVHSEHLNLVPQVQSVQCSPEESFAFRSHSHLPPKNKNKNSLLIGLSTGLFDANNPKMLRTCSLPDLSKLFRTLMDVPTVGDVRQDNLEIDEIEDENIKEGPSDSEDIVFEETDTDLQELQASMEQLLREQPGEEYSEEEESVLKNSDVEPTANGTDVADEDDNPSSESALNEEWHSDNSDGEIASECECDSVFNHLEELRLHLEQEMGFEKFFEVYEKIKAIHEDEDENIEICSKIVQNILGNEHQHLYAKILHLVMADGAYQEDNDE
Source text: as §1

PAK4 = PAK4 (Homo sapiens (Human), UniProt O96013); test: SelectScreen Kinase Profiling: PAK4; type: biochemical; conditions: 300-350 nM
Source text: as §1

Src [2] = conditions: quoted in column head, BMCL 2005 p1931; cited from earlier work
DYRK3 = DYRK3 (Homo sapiens (Human), UniProt O43781); test: SelectScreen Kinase Profiling: DYRK3; type: biochemical; conditions: 300-350 nM
Source text: as §1

EPHA2 = EPHA2 (Homo sapiens (Human), UniProt P29317); test: SelectScreen Kinase Profiling: EPHA2; type: biochemical; conditions: 300-350 nM
Source text: as §1

ROCK1 = ROCK1 (Homo sapiens (Human), UniProt Q13464); test: SelectScreen Kinase Profiling: ROCK1; type: biochemical; conditions: 300-350 nM
Source text: as §1

ERBB2 (HER2) = ERBB2 (HER2) (Homo sapiens (Human), UniProt P04626); test: SelectScreen Kinase Profiling: ERBB2; type: biochemical; conditions: 300-350 nM
Source text: as §1

FRAP1 (mTOR) = FRAP1 (mTOR) (Homo sapiens (Human), UniProt P42345); test: SelectScreen Kinase Profiling: FRAP1; type: biochemical; conditions: 300-350 nM
Source text: as §1

ABL1 = ABL1 (Homo sapiens (Human), UniProt P00519); test: SelectScreen Kinase Profiling: ABL1; type: biochemical; conditions: 300-350 nM
Source text: as §1

MARK2 = MARK2 (Homo sapiens (Human), UniProt Q7KZI7); test: SelectScreen Kinase Profiling: MARK2; type: biochemical; conditions: 300-350 nM
Source text: as §1

BTK = BTK (Homo sapiens (Human), UniProt Q06187); test: SelectScreen Kinase Profiling: BTK; type: biochemical; conditions: 300-350 nM
Source text: as §1

CSNK2A1 (CK2 alpha 1) = CSNK2A1 (CK2 alpha 1) (Homo sapiens (Human), UniProt P68400); test: SelectScreen Kinase Profiling: CSNK2A1; type: biochemical; conditions: 300-350 nM
Source text: as §1

FLT3 = FLT3 (Homo sapiens (Human), UniProt P36888); test: SelectScreen Kinase Profiling: FLT3; type: biochemical; conditions: 300-350 nM
Source text: as §1

AKT1 (PKB alpha) = AKT1 (PKB alpha) (Homo sapiens (Human), UniProt P31749); test: SelectScreen Kinase Profiling: AKT1; type: biochemical; conditions: 300-350 nM
Source text: as §1

INSR = INSR (Homo sapiens (Human), UniProt P06213); test: SelectScreen Kinase Profiling: INSR; type: biochemical; conditions: 300-350 nM
Source text: as §1

MAPK1 (ERK2) = MAPK1 (ERK2) (Homo sapiens (Human), UniProt P28482); test: SelectScreen Kinase Profiling: MAPK1; type: biochemical; conditions: 300-350 nM
Source text: as §1

SYK = SYK (Homo sapiens (Human), UniProt P43405); test: SelectScreen Kinase Profiling: SYK; type: biochemical; conditions: 300-350 nM
Source text: as §1

MAPK14 (p38 alpha) = MAPK14 (p38 alpha) (Homo sapiens (Human), UniProt Q16539); test: SelectScreen Kinase Profiling: MAPK14; type: biochemical; conditions: 300-350 nM
Source text: as §1

LCK = LCK (Homo sapiens (Human), UniProt P06239); test: SelectScreen Kinase Profiling: LCK; type: biochemical; conditions: 300-350 nM
Source text: as §1

TEK (Tie2) = TEK (Tie2) (Homo sapiens (Human), UniProt Q02763); test: SelectScreen Kinase Profiling: TEK; type: biochemical; conditions: 300-350 nM
TEK (Tie2), sequence (Q02763 23-1124): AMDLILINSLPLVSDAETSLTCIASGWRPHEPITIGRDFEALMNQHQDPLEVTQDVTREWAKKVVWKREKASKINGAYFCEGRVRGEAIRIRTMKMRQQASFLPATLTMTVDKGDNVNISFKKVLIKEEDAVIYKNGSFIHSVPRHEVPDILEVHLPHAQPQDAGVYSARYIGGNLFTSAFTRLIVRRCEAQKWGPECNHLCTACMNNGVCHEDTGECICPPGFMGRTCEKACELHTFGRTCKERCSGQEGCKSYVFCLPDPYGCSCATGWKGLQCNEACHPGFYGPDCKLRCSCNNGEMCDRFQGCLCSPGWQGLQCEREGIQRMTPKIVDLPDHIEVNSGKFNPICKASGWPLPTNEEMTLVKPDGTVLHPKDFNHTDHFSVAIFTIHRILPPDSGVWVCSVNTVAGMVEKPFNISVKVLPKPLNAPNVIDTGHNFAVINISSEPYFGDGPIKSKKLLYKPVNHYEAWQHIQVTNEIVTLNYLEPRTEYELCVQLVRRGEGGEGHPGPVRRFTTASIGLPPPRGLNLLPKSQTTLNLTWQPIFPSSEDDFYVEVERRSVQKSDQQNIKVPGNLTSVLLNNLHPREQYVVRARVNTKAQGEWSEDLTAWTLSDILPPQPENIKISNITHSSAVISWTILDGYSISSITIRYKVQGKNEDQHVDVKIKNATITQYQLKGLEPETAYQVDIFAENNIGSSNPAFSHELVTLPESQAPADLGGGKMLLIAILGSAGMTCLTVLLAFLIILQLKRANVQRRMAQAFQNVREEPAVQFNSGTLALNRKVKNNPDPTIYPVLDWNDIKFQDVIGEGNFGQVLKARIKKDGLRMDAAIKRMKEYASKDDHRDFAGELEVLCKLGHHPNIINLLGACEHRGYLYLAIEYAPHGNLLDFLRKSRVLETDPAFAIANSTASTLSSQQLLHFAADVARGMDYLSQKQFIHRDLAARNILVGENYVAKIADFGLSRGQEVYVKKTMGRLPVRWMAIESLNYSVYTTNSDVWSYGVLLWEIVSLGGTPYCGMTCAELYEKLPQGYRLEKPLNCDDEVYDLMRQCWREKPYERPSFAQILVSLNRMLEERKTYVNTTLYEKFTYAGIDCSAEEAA
Source text: as §1

IRAK4 = IRAK4 (Homo sapiens (Human), UniProt Q9NWZ3); test: SelectScreen Kinase Profiling: IRAK4; type: biochemical; conditions: 300-350 nM
Source text: as §1

MAP4K4 (HGK) = MAP4K4 (HGK) (Homo sapiens (Human), UniProt O95819); test: SelectScreen Kinase Profiling: MAP4K4; type: biochemical; conditions: 300-350 nM
Source text: as §1

GSK3B (GSK3 beta) = GSK3B (GSK3 beta) (Homo sapiens (Human), UniProt P49841); test: SelectScreen Kinase Profiling: GSK3B; type: biochemical; conditions: 300-350 nM
Source text: as §1

MAP2K1 (MEK1) = MAP2K1 (MEK1) (Homo sapiens (Human), UniProt Q02750); test: SelectScreen Kinase Profiling: MAP2K1; type: biochemical; conditions: 300-350 nM
Source text: as §1

IKBKB (IKK beta) = IKBKB (IKK beta) (Homo sapiens (Human), UniProt O14920); test: SelectScreen Kinase Profiling: IKBKB; type: biochemical; conditions: 300-350 nM
Source text: as §1

MET (cMet) = MET (cMet) (Homo sapiens (Human), UniProt P08581); test: SelectScreen Kinase Profiling: MET; type: biochemical; conditions: 300-350 nM
Source text: as §1

CCN(CC)CCOc1ccc(Nc2ncc3cc(-c4c(Cl)cccc4Cl)c(=O)n(C)c3n2)cc1 [Compound 1 BMCL, 2005, p1931, reference compound]
Inhibition RET (RET): + (Inhibition >75% at 300-350 nM)
Inhibition PLK1 (PLK1): − (Inhibition <75% @ 300-350 nM)
Inhibition PRKCB1 (PKC beta I) (PRKCB1 (PKC beta I)): − (Inhibition <75% @ 300-350 nM)
Inhibition IGF1R (IGF1R): − (Inhibition <75% @ 300-350 nM)
Inhibition CHEK1 (CHK1) (CHEK1 (CHK1)): − (Inhibition <75% @ 300-350 nM)
Inhibition AURKA (Aurora A) (AURKA (Aurora A)): − (Inhibition <75% @ 300-350 nM)
Inhibition SRC (Src [1]): + (Inhibition >75% at 300-350 nM)
Inhibition MAPK8 (JNK1) (MAPK8 (JNK1)): − (Inhibition <75% @ 300-350 nM)
Inhibition NTRK1 (TRKA) (NTRK1 (TRKA)): − (Inhibition <75% @ 300-350 nM)
Inhibition ACVR1B (ALK4) (ACVR1B (ALK4)): + (Inhibition >75% at 300-350 nM)
Inhibition KIT (KIT): + (Inhibition >75% at 300-350 nM)
Inhibition MAPKAPK2 (MAPKAPK2): − (Inhibition <75% @ 300-350 nM)
Inhibition RPS6KB1 (p70S6K) (RPS6KB1 (p70S6K)): − (Inhibition <75% @ 300-350 nM)
Inhibition FGFR1 (FGFR1): + (Inhibition >75% at 300-350 nM)
Inhibition PHKG2 (PHKG2): − (Inhibition <75% @ 300-350 nM)
Inhibition JAK3 (JAK3): + (Inhibition >75% at 300-350 nM)
Inhibition PRKACA (PKA) (PRKACA (PKA)): − (Inhibition <75% @ 300-350 nM)
Inhibition CSNK1G2 (CK1 gamma 2) (CSNK1G2 (CK1 gamma 2)): − (Inhibition <75% @ 300-350 nM)
Inhibition PIM1 (PIM1): − (Inhibition <75% @ 300-350 nM)
Inhibition KDR (VEGFR2) (KDR (VEGFR2)): + (Inhibition >75% at 300-350 nM)
Inhibition NEK1 (NEK1): − (Inhibition <75% @ 300-350 nM)
Inhibition PAK4 (PAK4): − (Inhibition <75% @ 300-350 nM)
IC50 (Src [2]): 6 nM
Inhibition DYRK3 (DYRK3): − (Inhibition <75% @ 300-350 nM)
Inhibition EPHA2 (EPHA2): + (Inhibition >75% at 300-350 nM)
Inhibition ROCK1 (ROCK1): − (Inhibition <75% @ 300-350 nM)
Inhibition ERBB2 (HER2) (ERBB2 (HER2)): − (Inhibition <75% @ 300-350 nM)
Inhibition FRAP1 (mTOR) (FRAP1 (mTOR)): − (Inhibition <75% @ 300-350 nM)
Inhibition ABL1 (ABL1): + (Inhibition >75% at 300-350 nM)
Inhibition MARK2 (MARK2): + (Inhibition >75% at 300-350 nM)
Inhibition BTK (BTK): + (Inhibition >75% at 300-350 nM)
Inhibition CSNK2A1 (CK2 alpha 1) (CSNK2A1 (CK2 alpha 1)): − (Inhibition <75% @ 300-350 nM)
Inhibition FLT3 (FLT3): + (Inhibition >75% at 300-350 nM)
Inhibition AKT1 (PKB alpha) (AKT1 (PKB alpha)): − (Inhibition <75% @ 300-350 nM)
Inhibition INSR (INSR): − (Inhibition <75% @ 300-350 nM)
Inhibition MAPK1 (ERK2) (MAPK1 (ERK2)): − (Inhibition <75% @ 300-350 nM)
Inhibition SYK (SYK): − (Inhibition <75% @ 300-350 nM)
Inhibition MAPK14 (p38 alpha) (MAPK14 (p38 alpha)): + (Inhibition >75% at 300-350 nM)
Inhibition LCK (LCK): + (Inhibition >75% at 300-350 nM)
Inhibition TEK (Tie2) (TEK (Tie2)): − (Inhibition <75% @ 300-350 nM)
Inhibition IRAK4 (IRAK4): − (Inhibition <75% @ 300-350 nM)
Inhibition MAP4K4 (HGK) (MAP4K4 (HGK)): + (Inhibition >75% at 300-350 nM)
Inhibition GSK3B (GSK3 beta) (GSK3B (GSK3 beta)): − (Inhibition <75% @ 300-350 nM)
Inhibition MAP2K1 (MEK1) (MAP2K1 (MEK1)): − (Inhibition <75% @ 300-350 nM)
Inhibition IKBKB (IKK beta) (IKBKB (IKK beta)): − (Inhibition <75% @ 300-350 nM)
Inhibition MET (cMet) (MET (cMet)): − (Inhibition <75% @ 300-350 nM)
